Experiments:
[1] = target: T1, human CB1 receptor (Homo sapiens, UniProt P21554); experiment: Functional cell-based assay, CB1 receptor mediated change in CRE β-gal expression (adenylate cyclase activity); conditions: CB1 Receptor Functional Inverse Agonist EC50, SK-N-MC cells, CRE β-gal, forskolin
T1 construct: expressed in transfected cells; host or cells: SK-N-MC cells, stably transfected with pcDNA3 CB-1 (human); semi-purified membrane pellet
From the text: The CB1 and CB2 receptors are G-protein coupled receptors (GPCR), which influence cell function via the Gi-protein. These receptors modulate the activity of intracellular adenylate cyclase, which in turn produces the intracellular signal messenger cyclic-AMP (cAMP).
At baseline, or during non-ligand bound conditions, these receptors are constitutively active and tonically suppress adenylate cyclase activity. The binding of an agonist causes further receptor activation and produces additional suppression of adenylate cyclase activity. The binding of an inverse agonist inhibits the constitutive activity of the receptors and results in an increase in adenylate cyclase activity.
Test compounds were evaluated in SK-N-MC cells which, using standard transfection procedures, were stably transfected with human cDNA for pcDNA3-CRE β-gal and pcDNA3 CB1 receptor (human) or pcDNA3 CB2 receptor (human). By expressing CRE β-gal, the cells produced β-galactosidase in response to CRE promoter activation by cAMP. Cells expressing CRE β-gal and either the human CB1 or CB2 receptor will produce less β-galactosidase when treated with a CB1/CB2 agonist and will produce more β-galactosidase when treated with a CB1/CB2 inverse agonist.
The cells were grown in 96-well plates under standard cell culture conditions at 37° C. in a 5% CO2 atmosphere. After 3 days, the media was removed and a test compound in media (wherein the media was supplemented with 2 mM L-glutamine, […] sodium pyruvate, 0.1% low fatty acid FBS (fetal bovine serum) and antibiotics) was added to the cell. The plates were incubated for 30 minutes at 37° C. and the plate cells were then treated with forskolin over a 4-6 hour period, then washed and lysed. The β-galactosidase activity was quantitated using commercially available kit reagents (Promega Corp. Madison, Wis.) and a Vmax Plate Reader (Molecular Devices, Inc).
The change in β-galactosidase activity was determined by setting a vehicle treated cell's activity value at 100% and expressing the β-galactosidase activity measured in a corresponding compound treated cell as a percent of the vehicle treated cell activity.
The EC50 value for functional activity for compounds tested was calculated by linear regression and was obtained from studies in which varying compound concentrations were used.
Where an EC50 value was not obtained for a test compound, the value shown (in %) represents change in functional activity and was obtained from a study in which one compound concentration was used.

[2] = target: T1, human CB1 receptor; experiment: Binding assay for CB1 agonists or inverse agonists ([3H]-CP-55,940 displacement, SK-N-MC membranes)
Experimental: (§1) The human CB1 and CB2 receptors were stably expressed in SK-N-MC cells transfected with pcDNA3 CB-1 (human) or pcDNA3 CB-2 (human). The cells were grown in T-180 cell culture flasks under standard cell culture conditions at 37° C. in a 5% CO2 atmosphere. The cells were harvested by trysinization and homogenized in a homogenization buffer (10 mM Tris, 0.2 mM MgCl2, 5 mM KCl, with protease inhibitors aprotinin, leupeptin, pepstatin A and bacitracin) and centrifuged (2000 g). The supernatant was then centrifuged in 2M sucrose (31,300 g) to produce a semi-purified membrane pellet. The pellet was resuspended in homogenization and stored at −80° C.
(§2) On the day of the assay, the pellet was thawed on ice and diluted in assay buffer (50 mM Tris-HCl, 5 mM MgCl2, 2.5 mM EDTA, 0.5 mg/mL fatty acid free bovine serum albumin, pH 7.5). […] The plate was covered and incubated for 90 minutes at 30° C. The contents were then aspirated onto a Packard Unifilter GF/C filter bottom plate prewet with 0.5% polyethyleneimine. The wells of the polypropylene plate were rinsed and aspirated seven times with a 0.9% saline-0.5% Tween 20 solution. The Unifilter plate was dried, a scintillation cocktail was added to each well and the counts representing binding were quantitated in a TopCount scintillation counter.
(§3) For compounds tested, an IC50 binding value was obtained from percent inhibition studies in which various test concentrations were used. The binding value was calculated by linear regression.

[3] = target: T2, human CB2 receptor (Homo sapiens, UniProt P34972); experiment: Binding assay for CB2 agonists or inverse agonists ([3H]-CP-55,940 displacement, SK-N-MC membranes); conditions: read-out: CB2 receptor binding percent inhibition
T2 construct: expressed in transfected cells; host or cells: SK-N-MC cells, stably transfected with pcDNA3 CB-2 (human); semi-purified membrane pellet
T2 sequence (P34972 whole entry): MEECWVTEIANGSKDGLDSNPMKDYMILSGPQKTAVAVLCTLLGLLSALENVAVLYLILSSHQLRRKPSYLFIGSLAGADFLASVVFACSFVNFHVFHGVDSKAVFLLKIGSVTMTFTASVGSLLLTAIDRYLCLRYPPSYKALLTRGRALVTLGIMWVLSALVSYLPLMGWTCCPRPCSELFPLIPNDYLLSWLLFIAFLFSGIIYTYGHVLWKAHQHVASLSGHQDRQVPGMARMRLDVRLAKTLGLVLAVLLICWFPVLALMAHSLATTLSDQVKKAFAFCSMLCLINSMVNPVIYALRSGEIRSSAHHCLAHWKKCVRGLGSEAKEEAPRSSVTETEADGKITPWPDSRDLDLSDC
Experimental: as §1, §2, §3

T1 sequence (P21554 whole entry): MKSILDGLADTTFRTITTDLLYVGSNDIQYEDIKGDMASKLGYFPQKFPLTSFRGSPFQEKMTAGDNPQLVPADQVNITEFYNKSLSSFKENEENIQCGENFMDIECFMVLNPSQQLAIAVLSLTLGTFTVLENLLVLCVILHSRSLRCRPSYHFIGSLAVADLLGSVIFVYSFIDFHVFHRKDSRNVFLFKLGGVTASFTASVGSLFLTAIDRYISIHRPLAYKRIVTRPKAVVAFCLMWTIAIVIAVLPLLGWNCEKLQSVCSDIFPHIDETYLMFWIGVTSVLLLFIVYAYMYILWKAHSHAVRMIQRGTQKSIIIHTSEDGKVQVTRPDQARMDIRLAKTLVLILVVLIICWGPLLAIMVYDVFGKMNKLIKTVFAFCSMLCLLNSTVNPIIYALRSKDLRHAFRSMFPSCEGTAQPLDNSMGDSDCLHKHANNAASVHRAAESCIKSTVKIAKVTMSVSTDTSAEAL

C[C@@H](NC(=O)c1nn(-c2ccc(F)cc2F)c2c1CCC2Cc1cccc(F)c1)C1CCCCC1 (stereo partly drawn) [Cpd 21, 1-(2,4-difluoro-phenyl)-6-(3-fluoro-benzyl)-1,4,5,6-tetrahydro-cyclopentapyrazole-3-carboxylic acid [(1R)-1-cyclohexyl-ethyl]-amide]
EC50 [1]: 0.04 µM | IC50 [2]: 0.08 µM | inhibition at 0.25 µM ([2]; read-out: CB1 receptor binding percent inhibition): 67% | inhibition at 0.25 µM [3]: 61%

Reference: patent publication US8119621B2, “Tetrahydro-cyclopentyl pyrazole cannabinoid modulators” (Janssen Pharmaceutica N.V., priority 2005, dated 2012)
